Assay results: patent US9394297B2, “Amides as pim inhibitors” (AMGEN INC., priority 2012, dated 2016)
Where a name gives a salt, the structure may show the parent alone.

Columns and labels:
[1] = target: Pim-1 (Homo sapiens (Human), UniProt P11309); assay: Pim-Mn enzyme assay (HTRF, 384-well), Pim-1; format: biochemical; details: Pim-1 enzyme 5 pM, ATP 1.5 μM, BAD (S112) 0.5 μM, HTRF, 22-point curve; read-out: Pim-1-Mn IC50 IP
[2] = target: Pim-2 (Homo sapiens (Human), UniProt Q9P1W9); assay: Pim-Mn enzyme assay (HTRF, 384-well), Pim-2; format: biochemical; details: Pim-2 enzyme 0.5 pM, ATP 1.5 μM, BAD (S112) 0.5 μM, HTRF, 22-point curve; read-out: Pim-2-Mn IC50 IP
Chain of Pim-2 (Q9P1W9 whole entry): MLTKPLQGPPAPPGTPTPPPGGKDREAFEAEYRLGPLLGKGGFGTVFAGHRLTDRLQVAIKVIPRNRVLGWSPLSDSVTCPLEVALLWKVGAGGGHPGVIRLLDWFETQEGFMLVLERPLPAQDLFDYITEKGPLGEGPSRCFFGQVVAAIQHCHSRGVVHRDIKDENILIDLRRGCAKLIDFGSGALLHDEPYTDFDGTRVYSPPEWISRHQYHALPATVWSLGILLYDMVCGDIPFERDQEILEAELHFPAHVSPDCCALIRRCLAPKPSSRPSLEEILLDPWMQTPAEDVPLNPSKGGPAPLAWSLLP

Chain of Pim-1 (P11309 whole entry): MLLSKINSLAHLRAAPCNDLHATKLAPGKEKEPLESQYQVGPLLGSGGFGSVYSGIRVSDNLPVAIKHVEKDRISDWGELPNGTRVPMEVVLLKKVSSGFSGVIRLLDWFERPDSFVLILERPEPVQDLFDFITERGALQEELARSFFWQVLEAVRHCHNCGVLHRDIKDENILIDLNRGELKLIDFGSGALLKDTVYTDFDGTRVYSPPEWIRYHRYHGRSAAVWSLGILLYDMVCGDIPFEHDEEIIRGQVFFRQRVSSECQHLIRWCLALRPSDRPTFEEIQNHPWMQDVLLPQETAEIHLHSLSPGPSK

Row | IC50 [1] | IC50 [2] | Compound
1 | 129 nM | 137 nM | CC(=O)N1CCC[C@H](Nc2nc3c(-c4cc5c([nH]4)CCNC5=O)cccc3nc2C)C1 [Example 242, 2-(3-(((3S)-1-acetyl-3-piperidinyl)amino)-2-methyl-5-quinoxalinyl)-1,5,6,7-tetrahydro-4H-pyrrolo[3,2-c]pyridin-4-one]
2 | 0.1 nM | 0.2 nM | CC(C)Nc1nc2c(-c3cc4c([nH]3)[C@@H](C)NC4=O)c(F)ccc2c(=O)n1C1CC1 [Example 490, (R)-3-cyclopropyl-7-fluoro-2-(isopropylamino)-8-(6-methyl-4-oxo-1,4,5,6-tetrahydropyrrolo[3,4-b]pyrrol-2-yl)quinazolin-4(3H)-one]
3 | 3.1 nM | 10.5 nM | CC#CCC1CNC(=O)c2cc(-c3cccc4nc(C)c(NC(C)(C)C)nc34)[nH]c21 (racemic) [Example 278, rac-2-(3-(tert-butylamino)-2-methyl-5-quinoxalinyl)-7-(2-butyn-1-yl)-1,5,6,7-tetrahydro-4H-pyrrolo[3,2-c]pyridin-4-one]
4 | 2.7 nM | 4 nM | Cc1nc2cccc(-c3cc4c([nH]3)CCNC4=O)c2nc1N[C@H]1CC[C@H](O)CC1 [Example 206, 2-(3-((trans-4-hydroxycyclohexyl)amino)-2-methylquinoxalin-5-yl)-6,7-dihydro-1H-pyrrolo[3,2-c]pyridin-4(5H)-one]
5 | 0.255 nM | 0.599 nM | Cc1nc2cccc(-c3[nH]c4c(c3Cl)C(=O)N[C@@H]4C)c2nc1NC1(C)CC1 [Example 454, (R)-3-chloro-6-methyl-2-(2-methyl-3-((1-methylcyclopropyl)amino)quinoxalin-5-yl)-5,6-dihydropyrrolo[3,4-b]pyrrol-4(1H)-one]
6 | 3.1 nM | 2 nM | Cn1c(Nc2ccccc2)nc2c(-c3cc4c([nH]3)CCNC4=O)cccc2c1=O [Example 266, 3-methyl-8-(4-oxo-4,5,6,7-tetrahydro-1H-pyrrolo[3,2-c]pyridin-2-yl)-2-(phenylamino)quinazolin-4(3H)-one]
7 | 149 nM | 403 nM | Cc1nc2cccc(-c3cc4c([nH]3)CCNC4=O)c2nc1N[C@@H]1CCCN(C(=O)OC(C)(C)C)C1 [Example 52, tert-butyl (3R)-3-((3-methyl-8-(4-oxo-4,5,6,7-tetrahydro-1H-pyrrolo[3,2-c]pyridin-2-yl)-2-quinoxalinyl)amino)-1-piperidinecarboxylate]
8 | 0.9 nM | 0.3 nM | C[C@H]1NC(=O)c2cc(-c3cccc4c(=O)n(CCCS(C)(=O)=O)c(NC(C)(C)C)nc34)[nH]c21 [Example 508, (R)-2-(tert-butylamino)-8-(6-methyl-4-oxo-1,4,5,6-tetrahydropyrrolo[3,4-b]pyrrol-2-yl)-3-(3-(methylsulfonyl)propyl)quinazolin-4(3H)-one]
9 | 28.3 nM | 27.2 nM | Cc1nc2cccc(-c3cc4c([nH]3)CCNC4=O)c2nc1N[C@@H](C)C(F)(F)F [Example 255, (S)-2-(2-methyl-3-((1,1,1-trifluoropropan-2-yl)amino)quinoxalin-5-yl)-6,7-dihydro-1H-pyrrolo[3,2-c]pyridin-4(5H)-one]
10 | 5.85 nM | 3.96 nM | Cc1nc2cccc(-c3cc4c([nH]3)C[C@H](C)NC4=O)c2nc1NC(C)(C)C [Example 288, (6S)-2-(3-(tert-butylamino)-2-methyl-5-quinoxalinyl)-6-methyl-1,5,6,7-tetrahydro-4H-pyrrolo[3,2-c]pyridin-4-one]
11 | 1 nM | 1.6 nM | C[C@H]1NC(=O)c2cc(-c3cccc4cnc(NC5(C)CC5)nc34)[nH]c21 [Example 499, (6R)-6-methyl-2-(2-((1-methylcyclopropyl)amino)-8-quinazolinyl)-5,6-dihydropyrrolo[3,4-b]pyrrol-4(1H)-one]
12 | 0.694 nM | 0.338 nM | Cc1nc2cccc(-c3cc4c([nH]3)CCNC4=O)c2nc1NC1(C(F)(F)F)CC1 [Example 258, 2-(2-methyl-3-((1-(trifluoromethyl)cyclopropyl)amino)quinoxalin-5-yl)-6,7-dihydro-1H-pyrrolo[3,2-c]pyridin-4(5H)-one]
13 | 0.28 nM | 0.16 nM | Cc1nc2cccc(-c3cc4c([nH]3)[C@@H](C)NC4=O)c2nc1N[C@H]1CCC[C@@H](NC(=O)[C@H](N)CO)C1 [Example 497, N-((1R,3S)-3-((3-methyl-8-((6R)-6-methyl-4-oxo-1,4,5,6-tetrahydropyrrolo[3,4-b]pyrrol-2-yl)-2-quinoxalinyl)amino)cyclohexyl)-D-serinamide]
14 | 853 nM | 1050 nM | Cc1nc2cccc(-c3cc4c([nH]3)CCNC4=O)c2nc1NC1CN(C)C1 [Example 243, 2-(2-methyl-3-((1-methyl-3-azetidinyl)amino)-5-quinoxalinyl)-1,5,6,7-tetrahydro-4H-pyrrolo[3,2-c]pyridin-4-one]
15 | 13.7 nM | 24.4 nM | CC(=O)N1CCC(Nc2nc3c(-c4cc5c([nH]4)CCNC5=O)cccc3nc2C)CC1 [Example 50, 2-(3-((1-acetyl-4-piperidinyl)amino)-2-methyl-5-quinoxalinyl)-1,5,6,7-tetrahydro-4H-pyrrolo[3,2-c]pyridin-4-one]
16 | 1.73 nM | 2.38 nM | CC(=O)N[C@@H]1CCC[C@H](Nc2nc3c(-c4cc5c([nH]4)[C@@H](C)NC5=O)cccc3nc2C)C1 [Example 486, N-((1R,3S)-3-((3-methyl-8-((6R)-6-methyl-4-oxo-1,4,5,6-tetrahydropyrrolo[3,4-b]pyrrol-2-yl)-2-quinoxalinyl)amino)cyclohexyl)acetamide]
17 | 1.2 nM | – | (R)-2-(3-(cyclopropylamino)-6-fluoro-2-methylquinoxalin-5-yl)-6-methyl-5,6-dihydropyrrolo[3,4-b]pyrrol-4(1H)-one [Example 284]
18 | 0.5 nM | – | Cc1nc2cccc(-c3cc4c([nH]3)CCNC4=O)c2nc1N[C@H]1C[C@H](N)C1 [Example 437, 2-(3-(((1r,3r)-3-aminocyclobutyl)amino)-2-methylquinoxalin-5-yl)-6,7-dihydro-1H-pyrrolo[3,2-c]pyridin-4(5H)-one hydrochloride]
19 | – | 0.1 nM | C[C@H]1NC(=O)c2cc(-c3cccc4c(=O)n(C)c(N[C@H]5CCC[C@@H](N)C5)nc34)[nH]c21 (racemic) [Example 506, (rac)-2-(((cis)-3-aminocyclohexyl)amino)-3-methyl-8-((6R)-6-methyl-4-oxo-1,4,5,6-tetrahydropyrrolo[3,4-b]pyrrol-2-yl)-4(3H)-quinazolinone]
20 | 0.07 nM | – | C[C@H]1NC(=O)c2cc(-c3c(F)ccc4c(=O)n(C5CC5)c(NC5(C)CCC5)nc34)[nH]c21 [Example 498, 3-Cyclopropyl-7-fluoro-2-((1-methylcyclobutyl)amino)-8-((6R)-6-methyl-4-oxo-1,4,5,6-tetrahydropyrrolo[3,4-b]pyrrol-2-yl)-4(3H)-quinazolinone]
21 | 0.501 nM | – | Cc1nc2cccc(-c3cc4c([nH]3)[C@@H](C)NC4=O)c2nc1N[C@H]1CCC[C@@H](NCC(F)(F)F)C1 [Example 487, (6R)-6-methyl-2-(2-methyl-3-(((1S,3R)-3-((2,2,2-trifluoroethyl)amino)cyclohexyl)amino)-5-quinoxalinyl)-5,6-dihydropyrrolo[3,4-b]pyrrol-4(1H)-one]
